In patent EP0326329B1, “Quinazoline derivatives useful as insecticides” (Dow AgroSciences LLC, priority 1988, dated 1989):

How the values were obtained:
Assay type in all cases: in vivo
[1] = system: Pyricularia oryzae (rice blast); conditions: disease control rating, foliar spray, host rice; 400 ppm (+++ at 100 ppm)
[2] = system: Erysiphe graminis tritici (powdery mildew); experiment: Greenhouse Test 1, foliar spray fungicide screen (POWD MDEW), host wheat; conditions: disease control rating, 400 ppm (+++ at 100 ppm)
[3] = system: Pseudoperonospora cubensis (downy mildew); experiment: Greenhouse Test 1, foliar spray fungicide screen (DOWN MDEW), host squash; conditions: disease control rating, 400 ppm (+++ at 100 ppm)
[4] = system: melon aphids (Aphis gossypii Glover); experiment: Mite/insect screen, sprayed squash cotyledons (MA); conditions: percent mortality; for mortality at 200 ppm / mortality at 400 ppm: Aphis gossypii, read-out: MA RESULTS %; for mortality at 200 ppm: spray rate 200 ppm
Summary of the method: (§1)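 Steps: formulate compound in acetone/alcohol 50:50 carrying emulsifiers; dilute with water; spray leaves until runoff on upper and lower surfaces; air-dry one hour; for armyworm, excise two […] leaves into a dish of larvae; after exposure, score mortality and plant injury.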

[5] = system: southern armyworm (Spodopetra eridania Cramer); experiment: Mite/insect screen, sprayed squash leaves (SAW); conditions: percent mortality; for mortality at 200 ppm / mortality at 400 ppm: Spodoptera eridania, read-out: SAW RESULTS %; for mortality at 200 ppm: spray rate 200 ppm
Summary of the method: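 Compounds dissolved in acetone/alcohol with TOXIMUL R/S emulsifiers, diluted with water to test concentrations, and sprayed to runoff on both leaf surfaces at 10 psi, then dried 1 h. Excised treated squash leaves given southern armyworm larvae; aphid and spider mite tests on sprayed squash cotyledons. Percent mortality and phytotoxicity scored after standard exposure.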

[6] = system: Twospotted spider mites (Tetranychus urticae Koch); experiment: Mite/insect screen, sprayed squash cotyledons (SM); conditions: percent mortality; for mortality at 200 ppm / mortality at 400 ppm: Tetranychus urticae, read-out: SM RESULTS %; for mortality at 200 ppm: spray rate 200 ppm
Summary of the method: as §1

[7] = system: Botrytis cinerea (gray mold); experiment: Greenhouse Test 1, foliar spray fungicide screen (GRAY MOLD), host grape berries; conditions: disease control rating, 400 ppm (+++ at 100 ppm)
[8] = system: Puccinia recondita tritici (leaf rust); experiment: Greenhouse Test 1, foliar spray fungicide screen (LEAF RUST), host wheat; conditions: disease control rating, 400 ppm (+++ at 100 ppm)
[9] = system: Southern corn rootworm (Diabrotica undecimpuctata howardi Barber); experiment: Mite/insect screen, soil treatment (CRW); conditions: percent mortality, soil treatment; for mortality at 12 ppm / mortality at 24 ppm: Diabrotica, read-out: CRW RESULTS %; for mortality at 12 ppm: CRW rate 12.00 ppm
Summary of the method: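 Compounds dissolved in acetone/alcohol (50:50) with Toximul R/S emulsifiers, diluted with water. Soil (15 g, with presoaked corn seed) treated with 1 mL test solution, dried 6–12 h, then five 2–3 instar larvae added; held at 23°C. Percent mortality and phytotoxicity scored after standard exposure periods.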

| Compound | RICE BLAST [1] | POWD MDEW [2] | DOWN MDEW [3] | mortality at 200 ppm [4] [%] | mortality at 400 ppm ([4]; spray rate 400 ppm) [%] | mortality at 200 ppm [5] [%] | mortality at 400 ppm ([5]; spray rate 400 ppm) [%] | mortality at 200 ppm [6] [%] | mortality at 400 ppm ([6]; spray rate 400 ppm) [%] | GRAY MOLD [7] | LEAF RUST [8] | mortality at 12 ppm [9] [%] | mortality at 24 ppm ([9]; CRW rate 24.00 ppm) [%] | MA RESULTS % ([4]; spray rate 400 ppm) [%] | SAW RESULTS % ([5]; spray rate 400 ppm) [%] | SM RESULTS % ([6]; spray rate 400 ppm) [%] | CRW RESULTS % ([9]; CRW rate 24.00 ppm) [%] |
| --- | --- | --- | --- | --- | --- | --- | --- | --- | --- | --- | --- | --- | --- | --- | --- | --- | --- |
| CC(C)(C)c1ccc(CCOc2nc(C(Cl)(Cl)Cl)nc3ccccc23)cc1 [Example 172, 2-(trichloromethyl)-4-[2-[4-(t-butyl)phenyl]ethoxy]quinazoline] | - (- = 0-19% control at 400 ppm) | - (- = 0-19% control at 400 ppm) | - (- = 0-19% control at 400 ppm) | 40 | 0 | 0 | 0 | 0 | 0 | - (- = 0-19% control at 400 ppm) | - (- = 0-19% control at 400 ppm) | 100 | 0 |  |  |  |  |
| c1ccc(-c2cccc(CCOc3ncnc4ccccc34)c2)cc1 [Example 173, 4-[2-(1,1'-biphenyl)-3-ylethoxy]quinazoline] | +++ (+++ = 90-100% control at 100 ppm) | ++ (++ = 90-100% control at 400 ppm) | + (+ = 20-89% control at 400 ppm) | 80 | 0 | 0 | 0 | 0 | 0 | - (- = 0-19% control at 400 ppm) | + (+ = 20-89% control at 400 ppm) | 0 | 0 |  |  |  |  |
| CC(C)(C)c1ccc(CCOc2ncnc3ccc(Cl)cc23)cc1 [Example 174, 6-chloro-4-[2-[4-(t-butyl)phenyl]ethoxy]quinazoline] | ++ (++ = 90-100% control at 400 ppm) | + (+ = 20-89% control at 400 ppm) | ++ (++ = 90-100% control at 400 ppm) | 0 | 0 | 0 | 0 | 80 | 40 | - (- = 0-19% control at 400 ppm) | - (- = 0-19% control at 400 ppm) | 0 | 100 |  |  |  |  |
| CC(C)(C)c1ccc(CCOc2ncnc3ccc(Br)cc23)cc1 [Example 175, 6-bromo-4-[2-[4-(t-butyl)phenyl]ethoxy]quinazoline] | ++ (++ = 90-100% control at 400 ppm) | - (- = 0-19% control at 400 ppm) | - (- = 0-19% control at 400 ppm) | 80 | 0 | 100 | 0 | 60 | 0 | - (- = 0-19% control at 400 ppm) | + (+ = 20-89% control at 400 ppm) | 0 | 0 | 0 | 0 | 0 | 0 |
| Brc1ccc2ncnc(NCCc3ccc(Oc4ccccc4)cc3)c2c1 [Example 177, 6-bromo-N-[2-(4-phenoxyphenyl)ethyl]-4-quinazolinamine] | +++ (+++ = 90-100% control at 100 ppm) | - (- = 0-19% control at 400 ppm) | +++ (+++ = 90-100% control at 100 ppm) | 80 | 50 | 0 | 0 | 0 | 50 | + (+ = 20-89% control at 400 ppm) | +++ (+++ = 90-100% control at 100 ppm) | 0 | 0 |  |  |  |  |
| CC(C)(C)c1ccc(CCCCOc2ncnc3ccccc23)cc1 [Example 178, 4-[4-[4-(t-butyl)phenyl]butoxy]quinazoline] | - (- = 0-19% control at 400 ppm) | ++ (++ = 90-100% control at 400 ppm) | + (+ = 20-89% control at 400 ppm) | 80 | 100 | 0 | 0 | 40 | 100 | + (+ = 20-89% control at 400 ppm) | - (- = 0-19% control at 400 ppm) | 0 | 0 |  |  |  |  |
| CCCCOc1ccc(CCOc2ncnc3ccccc23)cc1 [Example 180, 4-[2-(4-butoxyphenyl)ethoxy]quinazoline] | +++ (+++ = 90-100% control at 100 ppm) | +++ (+++ = 90-100% control at 100 ppm) | +++ (+++ = 90-100% control at 100 ppm) | 50 | 100 | 0 | 100 | 80 | 100 | - (- = 0-19% control at 400 ppm) | +++ (+++ = 90-100% control at 100 ppm) | 0 | 0 |  |  |  |  |
| CC(C)c1cccc(C(C)C)c1OCCOc1ncnc2ccccc12 [Example 181, 4-[2-[2,6-bis(i-propyl)phenoxy]ethoxy]quinazoline] | + (+ = 20-89% control at 400 ppm) | ++ (++ = 90-100% control at 400 ppm) | + (+ = 20-89% control at 400 ppm) | 60 | 50 | 0 | 0 | 0 | 40 | - (- = 0-19% control at 400 ppm) | - (- = 0-19% control at 400 ppm) | 0 | 0 |  |  |  |  |
| CC(COc1ncnc2ccccc12)c1cccc(Oc2ccccc2)c1 (centres unmarked) [Example 182, 4-[2-(3-phenoxyphenyl)propoxy]quinazoline] | - (- = 0-19% control at 400 ppm) | ++ (++ = 90-100% control at 400 ppm) | - (- = 0-19% control at 400 ppm) | 80 | 100 | 0 | 0 | 0 | 80 | - (- = 0-19% control at 400 ppm) | ++ (++ = 90-100% control at 400 ppm) | 0 | 0 |  |  |  |  |
| N#Cc1ccc(CCOc2ncnc3ccccc23)cc1 [Example 183, 4-[2-[(4-quinazolinyl)oxy]ethyl]benzonitrile] | ++ (++ = 90-100% control at 400 ppm) | + (+ = 20-89% control at 400 ppm) | + (+ = 20-89% control at 400 ppm) | 0 | 0 | 0 | 0 | 0 | 0 | - (- = 0-19% control at 400 ppm) | +++ (+++ = 90-100% control at 100 ppm) | 0 | 80 |  |  |  |  |
